According to the supplement of paper PMC11208160:

Assay: recombinant barcode read abundance after kanamycin selection (control-corrected) (log10(CPM+1)); higher = more efficient recombination; sequences stand for … in AGTGCAGAGAAAATCGGCCAGTTTTCTCTGCCTGCAGTCCGCATGCCGT…AGATTTATGCAGCGGACTGCCTTTCTCCCAAAGTGATAAACCGGACAGTATCATGGACCGGTTTTCCCGGTAATCCGTATTTGCAAGGTTGGTTTCACT; site = the 11-nt target
How it was run: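 Targets and IS621 bridge RNA target-binding loops were paired in oligos, each with a promoter, a barcode and the J23119-driven first 104 bridge RNA bases. A vector carrying the remaining 73 bp and a T7-inducible recombinase received these by Gibson cloning, and the pool was co-electroporated into E. coli with a donor plasmid. Duplicate plates contained chloramphenicol/ampicillin LB agar (control) or chloramphenicol/ampicillin/kanamycin with 0.1 mM IPTG. Recombination efficiency comes from averaged, control-corrected counts per million of recombinant-junction barcodes, reported as log10(CPM+1).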
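Note: IS621 recombinase and bridge RNA in Escherichia coli cells.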

| Sequence | recombinant barcode read abundance (log10) |
| --- | --- |
| GCCTGTTCTTGGGTTCTAACCTGTTGCCT (site GACTGTTCTAG) | 0.238 |
| GCCTGTTCTTGGGTTCTAACCTGTTGCCT (site GCCTGTTCTAG) | 0.462 |
| GCCTGTTCTTGGGTTCTAACCTGTTGCCT (site GGCTGTTCTAG) | 0.0257 |
| GCCTGTTCTTGGGTTCTAACCTGTTGCCT (site GTCTGTTCTAG) | 0.137 |
| GCGAACACTTGGGTTCTAACCTGTTGCTT (site GCGAACACTAA) | 1.9 |
| GCGAACACTTGGGTTCTAACCTGTTGCTT (site GCGAAGTCTAA) | 0.194 |
| GCGAGCCCTTGGGTTCTAACCTGTTGCGT (site GCGAGCCCTAC) | 2.52 |
| GCGAGCCCTTGGGTTCTAACCTGTTGCGT (site GCTAGCCCTCC) | 0.0583 |
| GCGCCCTCTTGGGTTCTAACCTGTTGCCG (site CAATTACCTAA) | 0.194 |
| GCGCCCTCTTGGGTTCTAACCTGTTGCCG (site GCGCCCTCTCG) | 0.606 |
| GCGCCTCCTTGGGTTCTAACCTGTTGCAT (site GCGACTCCTAT) | 0.144 |
| GCGCCTCCTTGGGTTCTAACCTGTTGCAT (site GCGCCTCCTAT) | 0.504 |
| GCGCCTCCTTGGGTTCTAACCTGTTGCAT (site GCGGCTCCTAT) | 0 |
| GCGCCTCCTTGGGTTCTAACCTGTTGCAT (site GCGTCTCCTAT) | 0.0165 |
| GCGCGCCCTTGGGTTCTAACCTGTTGCGG (site GCGCGCCCTCA) | 0.101 |
| GCGCGCCCTTGGGTTCTAACCTGTTGCGG (site GCGCGCCCTCC) | 1.63 |
| GCGCGTGCTTGGGTTCTAACCTGTTGCCT (site GCACGTGCTAG) | 1.11 |
| GCGCGTGCTTGGGTTCTAACCTGTTGCCT (site GCCCGTGCTAG) | 0.539 |
| GCGCGTGCTTGGGTTCTAACCTGTTGCCT (site GCGCGTGCTAG) | 0.584 |
| GCGCGTGCTTGGGTTCTAACCTGTTGCCT (site GCTCGTGCTAG) | 0.11 |
| GCGCTAGCTTGGGTTCTAACCTGTTGCCT (site ACGCTAGCTAG) | 0.125 |
| GCGCTAGCTTGGGTTCTAACCTGTTGCCT (site CCGCTAGCTAG) | 0.0832 |
| GCGCTAGCTTGGGTTCTAACCTGTTGCCT (site GCGCTAGCTAG) | 0.205 |
| GCGCTAGCTTGGGTTCTAACCTGTTGCCT (site TCGCTAGCTAG) | 0.111 |
| GCGCTTACTTGGGTTCTAACCTGTTGCCT (site GAGCTTACTAG) | 0.191 |
| GCGCTTACTTGGGTTCTAACCTGTTGCCT (site GCGCTTACTAG) | 0.665 |

| Sequence | recombinant barcode read abundance (log10) |
| --- | --- |
| GCGCTTACTTGGGTTCTAACCTGTTGCCT (site GGGCTTACTAG) | 0.0205 |
| GCGCTTACTTGGGTTCTAACCTGTTGCCT (site GTGCTTACTAG) | 0.0591 |
| GCGGAAGCTTGGGTTCTAACCTGTTGCCT (site GAGGAAGCTAG) | 0.192 |
| GCGGAAGCTTGGGTTCTAACCTGTTGCCT (site GCGGAAGCTAG) | 0.312 |
| GCGGAAGCTTGGGTTCTAACCTGTTGCCT (site GGGGAAGCTAG) | 0.469 |
| GCGGAAGCTTGGGTTCTAACCTGTTGCCT (site GTGGAAGCTAG) | 0.181 |
| GCGGGGTCTTGGGTTCTAACCTGTTGCCT (site ACGGGGTCTAG) | 0.786 |
| GCGGGGTCTTGGGTTCTAACCTGTTGCCT (site CCGGGGTCTAG) | 0.627 |
| GCGGGGTCTTGGGTTCTAACCTGTTGCCT (site GCGGGGTCTAG) | 1.2 |
| GCGGGGTCTTGGGTTCTAACCTGTTGCCT (site TCGGGGTCTAG) | 0.231 |
| GCGGTATCTTGGGTTCTAACCTGTTGCCT (site GCGGTATCTAG) | 1.21 |
| GCGGTATCTTGGGTTCTAACCTGTTGCCT (site GGGGTATCTAG) | 0.105 |
| GCGGTGACTTGGGTTCTAACCTGTTGCCT (site ACGGTGACTAG) | 0.942 |
| GCGGTGACTTGGGTTCTAACCTGTTGCCT (site CCGGTGACTAG) | 0.172 |
| GCGGTGACTTGGGTTCTAACCTGTTGCCT (site GCGGTGACTAG) | 1.48 |
| GCGGTGACTTGGGTTCTAACCTGTTGCCT (site TCGGTGACTAG) | 0.074 |
| GCGTACCCTTGGGTTCTAACCTGTTGCCT (site GAGTACCCTAG) | 0.404 |
| GCGTACCCTTGGGTTCTAACCTGTTGCCT (site GCGTACCCTAG) | 1.41 |
| GCGTACCCTTGGGTTCTAACCTGTTGCCT (site GGGTACCCTAG) | 0.0245 |
| GCGTACCCTTGGGTTCTAACCTGTTGCCT (site GTGTACCCTAG) | 0.0662 |
| GCGTACTCTTGGGTTCTAACCTGTTGCCT (site GCGGACTCTTG) | 0.0368 |
| GCGTACTCTTGGGTTCTAACCTGTTGCCT (site GCGTACTCTAG) | 2.02 |
| GCGTCCACTTGGGTTCTAACCTGTTGCCT (site GCATCCACTAG) | 0.398 |
| GCGTCCACTTGGGTTCTAACCTGTTGCCT (site GCGTCCACTAG) | 0.0111 |
| GCGTGTACTTGGGTTCTAACCTGTTGCCT (site GCGGGTACTAG) | 0.208 |
| GCGTGTACTTGGGTTCTAACCTGTTGCCT (site GCGTGTACTAG) | 0.948 |

| Sequence | recombinant barcode read abundance (log10) |
| --- | --- |
| GCTAAGTCTTGGGTTCTAACCTGTTGCGT (site GCGGAGTCTAC) | 0.166 |
| GCTAAGTCTTGGGTTCTAACCTGTTGCGT (site GCTAAGTCTAC) | 2.61 |
| GCTAGTCCTTGGGTTCTAACCTGTTGCGT (site GCTAGTCCTAC) | 2.14 |
| GCTAGTCCTTGGGTTCTAACCTGTTGCGT (site GCTAGTCCTCA) | 0.0737 |
| GCTATGTCTTGGGTTCTAACCTGTTGCCT (site GCTATGTCTAG) | 1.42 |
| GCTATGTCTTGGGTTCTAACCTGTTGCCT (site GGTATGTCTAA) | 0.0851 |
| GCTCAGTCTTGGGTTCTAACCTGTTGCCT (site GCTCAGACTAG) | 0.00917 |
| GCTCAGTCTTGGGTTCTAACCTGTTGCCT (site GCTCAGCCTAG) | 0.645 |
| GCTCAGTCTTGGGTTCTAACCTGTTGCCT (site GCTCAGGCTAG) | 0.218 |
| GCTCAGTCTTGGGTTCTAACCTGTTGCCT (site GCTCAGTCTAG) | 1.78 |
| GCTCATGCTTGGGTTCTAACCTGTTGCCT (site GCTCATGCTAG) | 1.92 |
| GCTCATGCTTGGGTTCTAACCTGTTGCCT (site GCTCATTCTAG) | 0.132 |
| GCTCATTCTTGGGTTCTAACCTGTTGCCT (site GCTCATGCTAG) | 0 |
| GCTCATTCTTGGGTTCTAACCTGTTGCCT (site GCTCATTCTAG) | 0.557 |
| GCTCCATCTTGGGTTCTAACCTGTTGCCT (site GATCCATCTAG) | 0.0768 |
| GCTCCATCTTGGGTTCTAACCTGTTGCCT (site GCTCCATCTAG) | 0.941 |
| GCTCCATCTTGGGTTCTAACCTGTTGCCT (site GGTCCATCTAG) | 0.122 |
| GCTCCATCTTGGGTTCTAACCTGTTGCCT (site GTTCCATCTAG) | 0.291 |
| GCTCCTCCTTGGGTTCTAACCTGTTGCAT (site ATAGAGTCTCG) | 0.0486 |
| GCTCCTCCTTGGGTTCTAACCTGTTGCAT (site GCTCCTCCTAT) | 1.15 |
| GCTCGAACTTGGGTTCTAACCTGTTGCCT (site GCACGAACTAG) | 0.46 |
| GCTCGAACTTGGGTTCTAACCTGTTGCCT (site GCCCGAACTAG) | 0.138 |
| GCTCGAACTTGGGTTCTAACCTGTTGCCT (site GCGCGAACTAG) | 0.00752 |
| GCTCGAACTTGGGTTCTAACCTGTTGCCT (site GCTCGAACTAG) | 0.38 |
| GCTCGTGCTTGGGTTCTAACCTGTTGCCT (site GCACGTGCTAG) | 0.69 |
